# Values of other authors in patent US20060216726A1, “Method for optimizing thiopurine efficacy and toxicity using mass spectrometry” (Prometheus Laboratories Inc., priority 2004, published 2006).
# Settings: patients with inflammatory bowel disease, azathioprine
substance,measurement,value
6-thioguanine nucleotide [6-TGN],Therapeutic threshold associated with efficacy,> 235 pmol/8×10^8 cells
